Measured values taken from US7759345B2, “Antitumoral derivatives of ET-743” (priority 2001, dated 2010).
Where two headings read alike, the source gives them in different places.

What was measured:
[1] = test system: Kidney
From the text: (§9) Toxicity was asssessed by the methods reported in Toxicology in Vitro, 15 (2001) 571-577, J. Luber Narod et al.: “Evaluation of the use of in vitro methodolodies as tools for screening new compounds for potential in vivo toxicity”.

[2] = test system: Myelo
From the text: as §9

[3] = test system: MCF-7; experiment: Inhibition of cells growth by colorimetric assay (SRB), MCF-7; assay type: cell-based; conditions: for CC50 / GI50: Homo sapiens; for CC50: MCF7, 48 h; for GI50: MCF7
Protocol: (§1) 2°.—Inhibition of Cells Growth by Colorimetric Assay.
(§2) A colorimetric type of assay, using sulforhodamine B (SRB) reaction has been adapted for a quantitative measurement of cell growth and viability [following the technique described by Philip Skehan, et al. (1990), New colorimetric cytotoxicity assay for anticancer drug screening, J. Natl. Cancer Inst., 82:1107-1112]
(§3) This form of the assay employs 96 well cell culture microplates of 9 mm diameter (Faircloth, 1988; Mosmann, 1983). Most of the cell lines are obtained from American Type Culture Collection (ATCC) derived from different human cancer types.
(§4) Cells are maintained in RPMI 1640 10% FBS, supplemented with 0.1 g/l penicillin and 0.1 g/l streptomycin sulfate and then incubated at 37° C., 5% CO2 and 98% humidity. For the experiments, cells were harvested from subconfluent cultures using trypsin and resuspended in fresh medium before plating.
(§5) Cells are seeded in 96 well microtiter plates, at 5×10^3 cells per well in aliquots of 195 μl medium, and they are allowed to attach to the plate surface by growing in drug free medium for 18 hours. Afterward, samples are added in aliquots of 5 μl in a ranging from 10 to 10^−8 μg/ml, dissolved in DMSO/EtOH/PBS (0.5:0.5:99). After 48 hours exposure, the antitumor effect are measured by the SRB methodology: cells are fixed by adding 50 μl of cold 50% (wt/vol) trichloroacetic acid (TCA) and incubating for 60 minutes at 4° C. Plates are washed with deionized water and dried. One hundred μl of SRB solution (0.4% wt/vol in 1% acetic acid) is added to each microtiter well and incubated for 10 minutes at room temperature. Unbound SRB is removed by washing with 1% acetic acid. Plates are air dried and bound stain is solubilized with Tris buffer. Optical densities are read on a automated spectrophotometric plate reader at a single wavelength of 490 nm.
(§6) The values for mean+/−SD of data from triplicate wells are calculated. Some parameters for cellular responses can be calculated: GI=growth inhibition, TGI=total growth inhibition (cytostatic effect) and LC=cell killing (cytotoxic effect).
(§7) Obtained results may predict the usefulness of a certain drug as a potential cancer treatment. For this technique, compounds which show GI50 values smaller than 10 μg/ml are selected to continue with further studies. GI50's data allow to predict that not only could a drug be cystostatic, but also it could have a potential in terms of tumor reduction.

[4] = test system: HT-29; experiment: Inhibition of cells growth by colorimetric assay (SRB), HT-29; assay type: cell-based; conditions: for GI50 / LC50 (concentration for 50% cell killing): Homo sapiens, HT-29, 48 h
Summary of the method: (§8)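 SRB read-out at 490 nm after 48 h drug exposure (10 to 10^−8 μg/ml) of cells plated at 5×10^3/well and attached 18 h in drug-free RPMI 1640/10% FBS. Triplicate means give GI, TGI (cytostatic) and LC (cytotoxic).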

[5] = test system: SK-MEL-28; experiment: Inhibition of cells growth by colorimetric assay (SRB), SK-MEL-28; assay type: cell-based; conditions: for GI50 / CC50: Homo sapiens, SK-MEL-28, 48 h
Summary of the method: as §8

[6] = test system: A-498; experiment: Inhibition of cells growth by colorimetric assay (SRB), A-498; assay type: cell-based; conditions: for LC50 / GI50: Homo sapiens; for LC50: A498, 48 h; for GI50: A498
Protocol: as §1, §2, §3, §4, §5, §6, §7

[7] = test system: Liver
From the text: as §9

[8] = test system: SW620; experiment: Inhibition of cells growth by colorimetric assay (SRB), SW620; assay type: cell-based; conditions: for GI50 / LC50: Homo sapiens
Protocol: as §1, §2, §3, §4, §5, §6, §7

[9] = test system: MDA-MB-231; experiment: Inhibition of cells growth by colorimetric assay (SRB), MDA-MB-231; assay type: cell-based; conditions: for CC50 / GI50: Homo sapiens; for CC50: MDA-MB-231, 48 h; for GI50: MDA-MB-231
Protocol: as §1, §2, §3, §4, §5, §6, §7

[10] = test system: DU-145; experiment: Inhibition of cells growth by colorimetric assay (SRB), DU-145; assay type: cell-based; conditions: for GI50 / CC50: Homo sapiens, DU-145, 48 h
Summary of the method: as §8

[11] = test system: A-549; experiment: Inhibition of cells growth by colorimetric assay (SRB), A-549; assay type: cell-based; conditions: for GI50 / LC50 (concentration for 50% cell killing): Homo sapiens, A549, 48 h
Summary of the method: as §8

[12] = test system: Heart
From the text: as §9

[13] = test system: Skeletal
From the text: as §9

For `COc1cc2c(cc1O)CCN[C@]21CS[C@@H]2c3c(OC)c(C)c4c(c3[C@H](COC1=O)N1C2[C@H]2c3c(cc(C)c(OC)c3O)C[C@@H]([C@@H]1O)N2C)OCO4` (some centres unmarked) [Compound 182], the “Toxicity Data Kidney” value [1] was 1.26E-08, the “Toxicity Data Myelo” value [2] was 3.19E-08 and the CC50 ([3]; read-out: MCF LC50) was 13.6 nM. The GI50 ([3]; SRB assay, 48 hours exposure, read-out: MCF GI50) was 2.72 nM, the “MCF TGI” value ([3]; SRB assay, 48 hours exposure) was 5.45E-09 and the GI50 ([4]; SRB assay, 48 hours exposure, read-out: HT-29 GI50) was 0.272 nM. The LC50 (concentration for 50% cell killing) ([4]; read-out: HT-29 LC50, SRB assay, 48 hours exposure) was 1.36 nM, the “HT-29 TGI” value ([4]; SRB assay, 48 hours exposure) was 1.09E-09 and the GI50 ([5]; SRB assay, 48 hours exposure, read-out: MEL-28 GI50) was 0.409 nM. For the same compound, the CC50 ([5]; read-out: MEL-28 LC50, SRB assay, 48 hours exposure) was 5.45 nM, the “MEL-28 TGI” value ([5]; SRB assay, 48 hours exposure) was 1.36E-09 and the LC50 ([6]; read-out: A-498 LC50) was 5.45 nM. The GI50 ([6]; SRB assay, 48 hours exposure, read-out: A-498 GI50) was 0.409 nM, the “A-498 TGI” value ([6]; SRB assay, 48 hours exposure) was 1.36E-09 and the “Toxicity Data Liver” value [7] was 3.98E-09. For the same compound, the GI50 ([8]; SW-620, 48 h, read-out: SW-620 GI50) was 1.09 nM, the LC50 ([8]; SW-620, 48 h, read-out: SW-620 LC50) was 13.6 nM and the “SW-620 TGI” value ([8]; SRB assay, 48 hours exposure) was 4.09E-09. The CC50 ([9]; read-out: MB-231 LC50) was 8.17 nM, the GI50 ([9]; SRB assay, 48 hours exposure, read-out: MB-231 GI50) was 0.272 nM and the “MB-231 TGI” value ([9]; SRB assay, 48 hours exposure) was 6.81E-10. The GI50 ([10]; SRB assay, 48 hours exposure, read-out: DU-145 GI50) was 0.272 nM, the CC50 ([10]; read-out: DU-145 LC50, SRB assay, 48 hours exposure) was 1.09 nM and the “DU-145 TGI” value ([10]; SRB assay, 48 hours exposure) was 4.09E-10. For the same compound, the GI50 ([11]; SRB assay, 48 hours exposure, read-out: A-549 GI50) was 0.409 nM, the LC50 (concentration for 50% cell killing) ([11]; read-out: A-549 LC50, SRB assay, 48 hours exposure) was 68.1 nM and the “A-549 TGI” value ([11]; SRB assay, 48 hours exposure) was 1.36E-09. For the same compound, the “Toxicity Data Heart” value [12] was 3.95E-08 and the “Toxicity Data Skeletal” value [13] was 1.49E-08.

For `COc1cc2c(cc1OC(=O)CCCl)CCN[C@]21CS[C@@H]2c3c(OC(C)=O)c(C)c4c(c3[C@H](COC1=O)N1C2[C@H]2c3c(cc(C)c(OC)c3O)C[C@@H]([C@@H]1O)N2C)OCO4` (some centres unmarked) [Compound 73], the CC50 ([3]; read-out: LC50 MCF) was 11.7 nM, the GI50 ([3]; MCF, SRB, 48 hours exposure, read-out: GI50 MCF) was 0.704 nM and the “TGI MCF” value ([3]; MCF, SRB, 48 hours exposure) was 3.52E-09. For the same compound, the “TGI HT-29” value ([4]; HT-29, SRB, 48 hours exposure) was 7.04E-09, the GI50 ([4]; HT-29, SRB, 48 hours exposure, read-out: GI50 HT-29) was 0.939 nM and the LC50 (concentration for 50% cell killing) ([4]; read-out: LC50 HT-29, HT-29, SRB, 48 hours exposure) was 10.6 nM. The GI50 ([5]; MEL-28, SRB, 48 hours exposure, read-out: GI50 MEL-28) was 0.822 nM, the CC50 ([5]; read-out: LC50 MEL-28, MEL-28, SRB, 48 hours exposure) was 3.52 nM and the “TGI MEL-28” value ([5]; MEL-28, SRB, 48 hours exposure) was 9.39E-10. The “TGI A-498” value ([6]; A-498, SRB, 48 hours exposure) was 7.04E-10, the LC50 ([6]; read-out: LC50 A-498) was 3.52 nM and the GI50 ([6]; A-498, SRB, 48 hours exposure, read-out: GI50 A-498) was 0.352 nM. The LC50 ([8]; SW-620, 48 h, read-out: LC50 SW-620) was 9.39 nM, the GI50 ([8]; SW-620, SRB, 48 hours exposure, read-out: GI50 SW-620) was 0.352 nM and the “TGI SW-620” value ([8]; SW-620, SRB, 48 hours exposure) was 1.17E-09. For the same compound, the CC50 ([9]; read-out: LC50 MB-231) was 1.17 nM, the GI50 ([9]; MB-231, SRB, 48 hours exposure, read-out: GI50 MB-231) was 0.235 nM and the “TGI MB-231” value ([9]; MB-231, SRB, 48 hours exposure) was 4.69E-11. For the same compound, the “TGI DU-145” value ([10]; DU-145, SRB, 48 hours exposure) was 3.52E-10, the GI50 ([10]; DU-145, SRB, 48 hours exposure, read-out: GI50 DU-145) was 0.235 nM and the CC50 ([10]; read-out: LC50 DU-145, DU-145, SRB, 48 hours exposure) was 0.939 nM. For the same compound, the “TGI A-549” value ([11]; A-549, SRB, 48 hours exposure) was 2.35E-09, the GI50 ([11]; A-549, SRB, 48 hours exposure, read-out: GI50 A-549) was 0.352 nM and the LC50 (concentration for 50% cell killing) ([11]; read-out: LC50 A-549, A-549, SRB, 48 hours exposure) was 5.87 nM.
